Measurements published in ChEMBL document CHEMBL1821565, “I. Novel HCV NS5B polymerase inhibitors: discovery of indole 2-carboxylic acids with C3-heterocycles” (Bioorg Med Chem Lett, 2011).
pEC50, pIC50: −log10 of the molar value.

Experiments:
[1] = Inhibition of HCV NS5B after 150 mins by [33P]-CTP incorporation assay; parameters: species or system Hepacivirus hominis
[2] = test system: Hepatitis C virus; assay: Antiviral activity against HCV subtype 1b Con1 reduction in replicon RNA level using RT-PCR by cell based replicon assay; format: functional, organism-based, Hepacivirus hominis; settings: for pEC50: Hepatitis C virus, Con1, read-out: EC50

Compound `O=C(O)c1c(-c2ccc(F)cc2F)c2cc(Cl)ccc2n1Cc1cccc(Cl)c1` has a pIC50 [1] of 5.96 and a pEC50 [2] of under 4.60.

Work on `O=C(O)c1c(-c2cccnc2F)c2cc(Cl)ccc2n1Cc1ccc(F)cc1F` yielded a pIC50 [1] of 6.52 and a pEC50 [2] of under 4.60.

With `O=C(O)c1c(-n2ccccc2=O)c2cc(Cl)ccc2n1Cc1ccccc1F` the pIC50 [1] was 6.82 and the pEC50 [2] was 4.72.

In the case of `O=C(O)c1c(-c2ccc[nH]c2=O)c2cc(Cl)ccc2n1Cc1ccc(F)cc1F`, the pIC50 [1] was 7.46 and the pEC50 [2] was 5.00.

Compound `O=C(O)c1c(-c2c[nH]c(=O)[nH]c2=O)c2cc(Cl)ccc2n1Cc1ccc(F)cc1F` has a pIC50 [1] of 7.33 and a pEC50 [2] of 5.00.

Work on `Nc1cc(Cn2c(C(=O)O)c(-c3ccc[nH]c3=O)c3cc(Cl)ccc32)ccn1` yielded a pIC50 [1] of 7.28 and a pEC50 [2] of 5.32.

In the case of `Nc1cc(Cn2c(C(=O)O)c(-c3c[nH]c(=O)[nH]c3=O)c3cc(Cl)ccc32)ccn1`, the pIC50 [1] was 7.51 and the pEC50 [2] was 5.70.

For `Nc1cc(Cn2c(C(=O)O)c(N3CCNS3(=O)=O)c3cc(Cl)ccc32)ccn1`, the pIC50 [1] was under 4.70 and the EC50 [2] was “Not Active”.

For `Nc1cc(Cn2c(C(=O)O)c(N3CCCNS3(=O)=O)c3cc(Cl)ccc32)ccn1`, the pIC50 [1] was under 4.70 and the EC50 [2] was “Not Active”.

`O=C(O)c1c(-c2ccc[nH]c2=O)c2cc(Br)ccc2n1Cc1ccc(F)cc1F` gave a pIC50 [1] of 7.37 and a pEC50 [2] of 5.12.

Compound `COc1ccc2c(c1)c(-c1ccc[nH]c1=O)c(C(=O)O)n2Cc1ccc(F)cc1F` has a pIC50 [1] of 7.37 and a pEC50 [2] of 4.96.

Work on `CCOc1ccc2c(c1)c(-c1ccc[nH]c1=O)c(C(=O)O)n2Cc1ccc(F)cc1F` yielded a pIC50 [1] of 6.92 and a pEC50 [2] of 4.70.

For `O=C(O)c1c(-c2ccc[nH]c2=O)c2cc(C3CC3)ccc2n1Cc1ccc(F)cc1F`, the pIC50 [1] was 6.25 and the pEC50 [2] was under 4.30.

In the case of `Cc1ccc2c(c1)c(-c1ccc[nH]c1=O)c(C(=O)O)n2Cc1ccc(F)cc1F`, the pIC50 [1] was 7.34.

Compound `O=C(O)c1c(-c2ccc[nH]c2=O)c2cc(C(F)(F)F)ccc2n1Cc1ccc(F)cc1F` has a pIC50 [1] of 7.60 and a pEC50 [2] of 5.32.

`NC(=O)Nc1c(C(=O)O)n(Cc2cc(F)ccc2F)c2ccc(C(F)(F)F)cc12` gave a pIC50 [1] of 6.46 and a pEC50 [2] of under 5.00.

`O=C(O)c1c(-n2c(=O)[nH]c3nccnc3c2=O)c2cc(C(F)(F)F)ccc2n1Cc1cc(F)ccc1F` showed a pIC50 [1] of 6.57 and a pEC50 [2] of under 5.00.

In the case of `O=C(O)c1c(-n2c(=O)[nH]c3cscc3c2=O)c2cc(C(F)(F)F)ccc2n1Cc1ccc(F)cc1F`, the pIC50 [1] was 7.23 and the pEC50 [2] was 4.92.

Work on `Nc1cc(Cn2c(C(=O)O)c(-n3c(=O)[nH]c4cscc4c3=O)c3cc(C(F)(F)F)ccc32)ccn1` yielded a pIC50 [1] of 7.49 and a pEC50 [2] of 5.85.

For `Nc1cc(Cn2c(C(=O)O)c(-c3ccc[nH]c3=O)c3cc(C(F)(F)F)ccc32)ccn1`, the pIC50 [1] was 7.77 and the pEC50 [2] was 6.52.

Compound `O=C(O)c1c(-c2ccccc2F)c2cc(Cl)ccc2n1Cc1ccccc1` has a pEC50 [2] of under 4.00.

For `O=C(O)c1[nH]c2ccc(Cl)cc2c1-c1ccccc1F`, the pIC50 [1] was 5.14 and the pEC50 [2] was under 4.60.

For `Cn1c(C(=O)O)c(-c2ccccc2F)c2cc(Cl)ccc21`, the pIC50 [1] was 5.89 and the pEC50 [2] was under 4.60.

`CC(=O)n1c(C(=O)O)c(-c2ccccc2F)c2cc(Cl)ccc21` showed a pIC50 [1] of 5.09 and a pEC50 [2] of under 4.60.

With `O=C(O)c1c(-c2ccccc2F)c2cc(Cl)ccc2n1C(=O)c1ccccc1` the pIC50 [1] was 5.11 and the pEC50 [2] was under 4.60.

For `O=C(O)c1c(-c2ccccc2F)c2cc(Cl)ccc2n1Cc1ccc2ccccc2c1`, the pIC50 [1] was 5.36 and the pEC50 [2] was under 4.60.

`Cc1cccc(Cn2c(C(=O)O)c(-c3ccccc3F)c3cc(Cl)ccc32)c1` showed a pIC50 [1] of 5.60 and a pEC50 [2] of under 4.60.

In the case of `O=C(O)c1c(-c2ccccc2F)c2cc(Cl)ccc2n1Cc1cccc(C(F)(F)F)c1`, the pIC50 [1] was under 4.36 and the pEC50 [2] was under 4.60.

With `O=C(O)c1c(-c2ccccc2F)c2cc(Cl)ccc2n1Cc1cccc(OC(F)(F)F)c1` the pIC50 [1] was 5.74 and the pEC50 [2] was under 4.60.

In the case of `O=C(O)c1c(-c2ccccc2F)c2cc(Cl)ccc2n1Cc1cc(F)ccc1F`, the pIC50 [1] was 6.52 and the pEC50 [2] was under 4.60.

With `Nc1ccccc1Cn1c(C(=O)O)c(-c2ccccc2F)c2cc(Cl)ccc21` the pIC50 [1] was 6.22 and the pEC50 [2] was under 4.60.

In the case of `Nc1cccc(Cn2c(C(=O)O)c(-c3ccccc3F)c3cc(Cl)ccc32)c1`, the pIC50 [1] was 6.70 and the pEC50 [2] was under 4.60.

Work on `Cc1ccc(Cn2c(C(=O)O)c(-c3ccccc3F)c3cc(Cl)ccc32)cc1N` yielded a pIC50 [1] of 5.89 and a pEC50 [2] of under 4.60.

`CC(=O)Nc1cccc(Cn2c(C(=O)O)c(-c3ccccc3F)c3cc(Cl)ccc32)c1` showed a pIC50 [1] of 6.22 and a pEC50 [2] of under 4.60.

Work on `O=C(O)c1c(-c2ccccc2F)c2cc(Cl)ccc2n1Cc1cccc(NCc2ccccc2)c1` yielded a pIC50 [1] of 6.15 and a pEC50 [2] of under 4.60.

`O=C(O)c1c(-c2ccccc2F)c2cc(Cl)ccc2n1Cc1cccnc1` gave a pIC50 [1] of 5.89 and a pEC50 [2] of under 4.60.

With `O=C(O)c1c(-c2ccccc2F)c2cc(Cl)ccc2n1Cc1ccncc1` the pIC50 [1] was 5.92 and the pEC50 [2] was under 4.60.

Work on `O=C(O)c1cc2cc(Cl)ccc2n1Cc1ccccc1F` yielded a pIC50 [1] of 4.77 and a pEC50 [2] of under 4.60.

In the case of `COc1ccccc1-c1c(C(=O)O)n(Cc2ccccc2F)c2ccc(Cl)cc12`, the pIC50 [1] was 5.00 and the pEC50 [2] was under 4.60.

Work on `O=C(O)c1c(-c2ccccc2O)c2cc(Cl)ccc2n1Cc1cc(F)ccc1F` yielded a pIC50 [1] of 5.85 and a pEC50 [2] of under 4.60.

`O=C(O)c1c(-c2ccccc2)c2cc(Cl)ccc2n1Cc1cccc(Cl)c1` gave a pIC50 [1] of 5.38 and a pEC50 [2] of under 4.60.

`O=C(O)c1c(-c2cccc(Cl)c2)c2cc(Cl)ccc2n1Cc1cccc(Cl)c1` gave a pIC50 [1] of 4.48 and a pEC50 [2] of under 4.60.

Compound `N#Cc1cccc(-c2c(C(=O)O)n(Cc3cccc(Cl)c3)c3ccc(Cl)cc23)c1` has a pIC50 [1] of 4.52 and a pEC50 [2] of under 4.60.

For `O=C(O)c1c(-c2ccc3c(c2)OCO3)c2cc(Cl)ccc2n1Cc1cccc(Cl)c1`, the pIC50 [1] was 4.54 and the pEC50 [2] was under 4.60.

`O=C(O)c1c(-c2ccc(F)cc2)c2cc(Cl)ccc2n1Cc1cccc(Cl)c1` gave a pIC50 [1] of under 4.32 and a pEC50 [2] of under 4.60.

With `O=C(O)c1c(-c2ccc(F)c(F)c2)c2cc(Cl)ccc2n1Cc1cccc(Cl)c1` the pIC50 [1] was under 4.34 and the pEC50 [2] was under 4.60.
